# In ChEMBL document CHEMBL1201862, “PubChem BioAssay data set” (2004):
#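 Compound exposure: 48 hours, 5 concentrations, 96-well plates. GI50: concentration for 50% inhibition of growth.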 The source made the active and inactive calls. Rule as the data show it: active = GI50 up to about 1.1 µM and inactive = higher.
# What was measured:
# Test in all cases: DTP human tumour cell line panel, 48 h
# [1] = system: 786-0
# [2] = system: A498
# [3] = system: A549
# [4] = system: ACHN
# [5] = system: BT-549
# [6] = system: CAKI-1
# [7] = system: COLO 205
# [8] = system: DU-145
# [9] = system: EKVX
# [10] = system: HCC 2998
# [11] = system: HCT-116
# [12] = system: HCT-15
# [13] = system: HOP-62
# [14] = system: HOP-92
# [15] = system: HT-29
# [16] = system: Hs-578T
# [17] = system: IGROV-1
# [18] = system: K562
# [19] = system: KM12
# [20] = system: LOX IMVI
# [21] = system: M14
# [22] = system: MCF7
# [23] = system: MDA-MB-231
# [24] = system: MDA-MB-435
# [25] = system: MDA-N
# [26] = system: MOLT-4
# [27] = system: Malme-3M
# [28] = system: NCI-H226
# [29] = system: NCI-H23
# [30] = system: NCI-H460
# [31] = system: NCI-H522
# [32] = system: NCI/ADR-RES
# [33] = system: OVCAR-3
# [34] = system: OVCAR-4
# [35] = system: OVCAR-5
# [36] = system: OVCAR-8
# [37] = system: PC-3
# [38] = system: RPMI-8226
# [39] = system: RXF 393
# [40] = system: SF-268
# [41] = system: SF-295
# [42] = system: SF-539
# [43] = system: SK-MEL-28
# [44] = system: SK-MEL-2
# [45] = system: SK-MEL-5
# [46] = system: SK-OV-3
# [47] = system: SN12C
# [48] = system: SNB-19
# [49] = system: SNB-75
# [50] = system: SR
# [51] = system: SW-620
# [52] = system: T47D
# [53] = system: TK-10
# [54] = system: U-251
# [55] = system: UACC-257
# [56] = system: UACC-62
# [57] = system: UO-31
smiles,measurement,setting,value
Cc1ccccc1OC(C)C(=O)NN1C(=O)CSC1c1ccccc1 (configuration not stated),GI50,[1],> 100 µM (inactive)
same,GI50,[2],34.3 µM (inactive)
same,GI50,[3],42 µM (inactive)
same,GI50,[4],60.5 µM (inactive)
same,GI50,[5],> 100 µM (inactive)
same,GI50,[6],> 100 µM (inactive)
same,GI50,[7],> 100 µM (inactive)
same,GI50,[8],> 100 µM (inactive)
same,GI50,[9],83.2 µM (inactive)
same,GI50,[10],63.2 µM (inactive)
same,GI50,[11],53.1 µM (inactive)
same,GI50,[12],65.3 µM
same,GI50,[13],> 100 µM (inactive)
same,GI50,[14],47.8 µM (inactive)
same,GI50,[15],93.1 µM (inactive)
same,GI50,[16],> 100 µM (inactive)
same,GI50,[17],> 100 µM (inactive)
same,GI50,[18],14.7 µM (inactive)
same,GI50,[19],93.5 µM (inactive)
same,GI50,[20],> 100 µM (inactive)
same,GI50,[21],> 100 µM (inactive)
same,GI50,[22],38.5 µM (inactive)
same,GI50,[23],> 100 µM (inactive)
same,GI50,[24],79.3 µM (inactive)
same,GI50,[25],53.2 µM (inactive)
same,GI50,[26],< 0.01 µM (active)
same,GI50,[27],> 100 µM (inactive)
same,GI50,[28],67.1 µM (inactive)
same,GI50,[29],53.2 µM (inactive)
same,GI50,[30],93.5 µM (inactive)
same,GI50,[31],61.9 µM (inactive)
same,GI50,[32],72.8 µM (inactive)
same,GI50,[33],58.7 µM (inactive)
same,GI50,[34],> 100 µM (inactive)
same,GI50,[35],> 100 µM (inactive)
same,GI50,[36],> 100 µM (inactive)
same,GI50,[37],> 100 µM (inactive)
same,GI50,[38],34.2 µM (inactive)
same,GI50,[39],45 µM (inactive)
same,GI50,[40],> 100 µM (inactive)
same,GI50,[41],56.2 µM (inactive)
same,GI50,[42],> 100 µM (inactive)
same,GI50,[43],> 100 µM (inactive)
same,GI50,[44],> 100 µM (inactive)
same,GI50,[45],32.2 µM (inactive)
same,GI50,[46],> 100 µM (inactive)
same,GI50,[47],> 100 µM (inactive)
same,GI50,[48],67.6 µM (inactive)
same,GI50,[49],60.7 µM (inactive)
same,GI50,[50],10.2 µM (inactive)
same,GI50,[51],> 100 µM (inactive)
same,GI50,[52],34.7 µM (inactive)
same,GI50,[53],> 100 µM (inactive)
same,GI50,[54],96.4 µM (inactive)
same,GI50,[55],45.2 µM (inactive)
same,GI50,[56],64.7 µM (inactive)
same,GI50,[57],63.2 µM (inactive)
